The source of these data is US20020142347A1, “Biosensor” (BIOSENSOR ApS, priority 2000, published 2002).

Read-outs that look alike come from different tables or passages of the source.

The target of assay [1] is T1, FACI53 (Bos taurus, UniProt P07107, A54C).
T1 construct: badan (6-bromoacetyl-2-dimethylaminonaphthalene) fluorophore on the introduced Cys-53; made in house; host or cells: E. coli BL21(DE3)pLysS, pET3a vector
T1 sequence (P07107 2-87 A54C): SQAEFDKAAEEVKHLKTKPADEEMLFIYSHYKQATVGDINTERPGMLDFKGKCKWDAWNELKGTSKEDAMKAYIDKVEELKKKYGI
Kind of assay: Fluorescence emission change of FACI-53 on titration with CoA and acyl-CoA esters. In kind it is binding, bovine. The method, then: (§1) Quantitative determination of binding affinities (KD) were performed by isothermal titration micro calorimetry as previously described (Faergeman et. al., 1996; Biochemistry 35, 14118-14126). Qualitative evaluation of relative binding affinities were determined by isoelectrical focusing using the Pharmacia Fast Gel system according to the prescriptions given by the manufacture. Fluorescence emission changes induced by acyl-CoA binding to badan modified protein were determined as follows: 5 μl portions of acyl-CoAs were added from stock solutions disolved in binding buffer, (10 mM Hepes, 150 mM NaCL, 1 mM NaHPO4, pH 7.4) containing 3.4 μM Badan derivatized protein to a 1 ml 3.4 μM solution of the Badan derivatized ACBP in the same buffer. The fluorescence emission was measured on a SPEX FLOUROLOG (Industries Inc, Edison N.J., USA) with excitation at 400 nm and emission scan from 400 nm to 550 nm. The concentration of acyl-CoA in the aqueous phase was determined from the fluorescence emission sensitivities at 495 and 470 nm repectively essentially by the method described by (Grynkiewickz et. al.,1985, J. Biol. Chem. 260, 3440-3450) according to which:
(§2) Fluorescence titration emission spectra from 415 nm to 550 nm (excitation at 400 nm) were performed for CoA, C4:0-, C8:0-, C12:0-, C16:0-, and C20:0-CoA with all four mutated and badan modified proteins.
Titration of FACI-53 dissolved in binding buffer with the above mentioned acyl-CoA esters produced a smooth downward shift in fluorescence emission maximum from 525 nm when no ligand was present to 508, 503, 490, 492, 496 and 514 with increasing concentrations of CoA, C4:0-, C8:0-, C12:0-, C16:0- and C20:0-CoA respectively.

The target of assay [2] is T2, FACI-24 (Bos taurus, UniProt P07107, M25C).
T2 construct: made in house; host or cells: E. coli BL21(DE3)pLysS, pET3a vector
T2 sequence (P07107 2-87 M25C): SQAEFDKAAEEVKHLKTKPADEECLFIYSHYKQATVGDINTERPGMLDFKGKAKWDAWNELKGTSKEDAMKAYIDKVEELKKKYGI
Kind of assay: Fluorescence emission change of FACI-24 on titration with CoA and acyl-CoA esters. The settings on record: emission maximum without ligand 510 nm; excitation 400 nm. It counts as binding, bovine. The method, then: as §1, §2
The emission maximum of FACI-24 without ligand added was 510 nm and titration with CoA, C4:0-, C8:0-, C12:0-, […], C16:0- and C20:0-CoA caused 0, 16, 34, 42, 46 and 46 nm downshift in emission maximum, respectively (results not shown). C16:0-CoA induced a 5,5 fold increase in emission at 464 nm (FIG. 10).
Titration of FACI with acyl-CoAs was done using a SPEX FLOUROLOG (Industries Inc, Edison N.J., USA) with excitation at 387 nm and emission at 460 nm, with both excitation and emission slits set to 4.5 nm. FACI (0.5-4.5 uM, as indicated) was dissolved in 1.5 ml binding buffer (10 mM HEPES 150 mM NaCl, 5 mM KCl, 1 mM Na2HPO4, pH 7.4) and titrated with a 10 μM acyl-CoA dissolved in binding buffer, with or without FACI added, as indicated. Fluorescence emission values (counts per second) measured without FACI added to the ligand stock solution were corrected for titrand dilution.

Assay [3] addresses T1, FACI53. The assay can be described thus: Isoelectrical focusing of acyl-CoA binding to FACI53. Further details: species or system bovine. The settings on record: ligand in four-fold molar excess over protein. The method, then:
All the gels were prepared with ligands (1-7) in four-fold molar excess over protein. […] The protein-ligand complex shifted to a pl around 3.8. Legend: 1: Water, 2: CoA-SH, 3: C4-CoA, 4: C8-CoA, 5: C12-CoA, 6: C16-CoA, 7: C20-CoA, 8: Broad pl Calibration Kit (pH 3-10).
as §1, with “The concentration of acyl-CoA in the aqueous phase was determined from the fluorescence emission sensitivities at 495 and 470 nm repectively essentially by the method described by (Grynkiewickz et. al.,1985, J. Biol. Chem. 260, 3440-3450) according to which:” left out

The nature of assay [4]: Fluorescence response of the Phe-49_Cys49 badan derivative of bovine ACBP to ligands. It counts as binding. The settings on record: badan group exposed to the environment. As to the method:
Reference is made to FIG. 2. and FIG. 3. which depict the emission spectra of FACI24 and FACI53 titrated with increasing concentrations of CoA, C4-, C8-, C12-, C16- and C20-CoA esters. The addition of ligand and measurement of emission of FACI24 and FACI53 was performed as described in example 2. The increased addition of ligand to the mutated and modified proteins caused a proportional spectral change. The normal physiological binding profile was confirmed by direct binding studies using isoelectrical focusing as predicted in FIG. 4. […] The results clearly indicate that fluorescence emission at 470 nm may provide a measure for the concentration of free unbound long-chain(>C12)-acyl-CoA ester.
The two sensors presented herein together act as high sensitivity sensors in the chain length range from C8-CoA to C20-CoA. […]
Quantitative determination of binding affinities (KD) were performed by isothermal titration micro calorimetry as previously described (Faergeman et. al., 1996; Biochemistry 35, 14118-14126). Qualitative evaluation of relative binding affinities were determined by isoelectrical focusing using the Pharmacia Fast Gel system according to the prescriptions given by the manufacture. […] The fluorescence emission was measured on a SPEX FLOUROLOG (Industries Inc, Edison N.J., USA) with excitation at 400 nm and emission scan from 400 nm to 550 nm. […]

The nature of assay [5]: Fluorescence titration emission spectra of FACI-46 (negative control). In kind it is binding.
Excerpt: The strategy behind the design of the mutants was based on the tertiary structure of the bovine ACBP/acyl-CoA complex. Both Met-24 and Ala-53 interact directly with the acyl-chain of the acyl-CoA ligand, interacting with the omega-methyl group of long acyl-chains. Positioning of an environmentally sensitive group in one of these positions would therefore be expected to create ligand sensitive probes. Met-46 which is located outside the hydrophobic binding pocket in the loop between helix 2 and 3 was chosen to serve as a negative control which should not be sensitive to ligand binding.
as §2

As to `CCCCCCCCCCCCCCCCCCCC(=O)SCCNC(=O)CCNC(=O)[C@H](O)C(C)(C)COP(=O)(O)OP(=O)(O)OC[C@H]1O[C@@H](n2cnc3c(N)ncnc32)[C@H](O)[C@@H]1OP(=O)(O)O` [C20:0-CoA], in assay [1], the “Fluorescence response of FACI-53” value was “hardly responded” and the “Magnitude of emission of FACI-53, fold increase” value is given as 0.8 fold. For the same molecule, in assay [1] (525 nm when no ligand present, excitation 400 nm), the “Fluorescence emission maximum of FACI-53 with ligand” value came out at 514 nm. Besides, the “Relative emission of FACI-53 at 495 nm, fold increase” value in assay [1] (emission at 495 nm) worked out at 0.8 fold. In addition, in assay [2], the “Downshift in emission maximum of FACI-24” value is recorded as 46 nm. Moreover, in assay [3], the “Binding to FACI53 by isoelectrical focusing” value is “shown to bind”.

B1: Phe-49_Cys49 badan derivative of bovine ACBP: Phe49 to Cys mutant of bovine ACBP labelled with badan, badan group exposed to the environment (conjugate, UniProt P07107 2-87, looked up, variant F49C)
Acyl-CoA-binding protein: SQAEFDKAAEEVKHLKTKPADEEMLFIYSHYKQATVGDINTERPGMLDCKGKAKWDAWNELKGTSKEDAMKAYIDKVEELKKKYGI
modifications: badan label
notes: Phe49 to Cys mutant of bovine ACBP labelled with badan, badan group exposed to the environment
Turning to B1, the “Fluorescence response to addition of ligands” value in assay [4] is on record as “did not respond to addition of any of the ligands”.

B2: FACI-46: badan derivative of M46C-bovine ACBP, negative control (conjugate, UniProt P07107 2-87, looked up, variant M46C)
Acyl-CoA-binding protein: SQAEFDKAAEEVKHLKTKPADEEMLFIYSHYKQATVGDINTERPGCLDFKGKAKWDAWNELKGTSKEDAMKAYIDKVEELKKKYGI
modifications: badan label
notes: badan derivative of M46C-bovine ACBP, negative control
Take B2: the “Emission spectra changes of FACI-46 with ligands (words)” value in assay [5] is “did not show any emission spectra changes with any of the ligands”; in assay [5] (listed as FACI46), “did not show changes in emission spectra with any of the tested ligands”.
